Reference: US4113946A, “Δ^2,3 -1,4-Morpholine-2-carboxylic acid derivatives as antibacterial agents” (Bristol-Myers Company, priority 1977, dated 1978)
≈ marks a conversion by molar mass, not a printed value. Where two headings read alike, the source gives them in different places.

Tests used:
Assay type in all cases: cell-based
[1] = tested on: E. coli Juhl A15119; test: M.I.C. by tube dilution, E. coli Juhl A15119; settings: for MIC: Escherichia coli, JUHLA15119
[2] = tested on: D. pneumoniae A9585; test: M.I.C. by tube dilution, D. pneumoniae A9585; settings: for MIC: Streptococcus pneumoniae, A9585
[3] = tested on: S. aureus Smith A9537; test: M.I.C. by tube dilution, S. aureus Smith A9537; settings: for MIC: Staphylococcus aureus
[4] = tested on: Sal. enteritidis A9531; test: M.I.C. by tube dilution, Sal. enteritidis A9531; settings: for MIC: Salmonella enterica, ENTERITIDIS
[5] = tested on: Ent. cloacae A9659; test: M.I.C. by tube dilution, Ent. cloacae A9659; settings: Enterobacter cloacae, A9659, overnight 37° C.
[6] = tested on: S. aureus meth.-resist; A15097; test: M.I.C. by tube dilution, S. aureus meth.-resist A15097; settings: Staphylococcus aureus, at 10^-3 dil'n, overnight 37° C.
[7] = tested on: S. aureus BX1633-2 A9606; test: M.I.C. by tube dilution, S. aureus BX1633-2 A9606; settings: overnight 37° C.; for MIC: Staphylococcus aureus
[8] = tested on: Ent. cloacae A9657; test: M.I.C. by tube dilution, Ent. cloacae A9657; settings: Enterobacter cloacae, A9657, overnight 37° C.; read-out: M.I.C.
[9] = tested on: E. coli A9675; test: M.I.C. by tube dilution, E. coli A9675; settings: Escherichia coli
[10] = tested on: Pr. morganii A15153; test: M.I.C. by tube dilution, Pr. morganii A15153; settings: Morganella morganii
[11] = tested on: K. pneumoniae A9977; test: M.I.C. by tube dilution, K. pneumoniae A9977; settings: Klebsiella pneumoniae
[12] = tested on: K. pneumoniae A15130; test: M.I.C. by tube dilution, K. pneumoniae A15130; settings: Klebsiella pneumoniae
[13] = tested on: Ps. aeruginosa A9843A; test: microbe, parasite or virus in culture; settings: Pseudomonas aeruginosa
[14] = tested on: Ser. marcescens A20019; test: M.I.C. by tube dilution, Ser. marcescens A20019; settings: Serratia marcescens
[15] = tested on: Str. pyogenes A9604; test: M.I.C. by tube dilution, Str. pyogenes A9604; settings: Streptococcus pyogenes
[16] = tested on: Pr. mirabilis A9900; test: M.I.C. by tube dilution, Pr. mirabilis A9900; settings: Proteus mirabilis
[17] = Table 9, compound of Ex. No., dilution not given, read-out: M.I.C. E. coli A15119
[18] = Table 9, compound of Ex. No., serum not given, read-out: M.I.C. D. pneumoniae A9585
[19] = SMITHA9537, Table 9, compound of Ex. No., serum and dilution not given, read-out: M.I.C. S. aureus A9537
[20] = Table 9, compound of Ex. No., dilution not given, read-out: M.I.C. Sal. enteritidis A9531
[21] = BX16332A9606, at 10^-2 dil'n, read-out: M.I.C.
[22] = BX16332A9606, at 10^-3 dil'n, read-out: M.I.C.
[23] = at 10^-4 dilution, overnight 37° C., read-out: M.I.C.
[24] = Table 9, compound of Ex. No., dilution not given
[25] = +5% serum, 50% Nutrient Broth - 45% Antibiotic Assay Broth, overnight 37° C., read-out: M.I.C.

Compound | MIC [1, 17] [µg/mL] | MIC [2, 18] [µg/mL] | MIC [3, 19] [µg/mL] | MIC [4, 20] [µg/mL] | also measured
CCCCC(=O)NC1C(=O)N2C(C(=O)O)=C(C)OCC12 (stereo not drawn) [Example 29, 7β-Valeramido-3-methyl-Δ^3 -O-2-isocephem-4-carboxylic acid] | > 125 | 125 (≈ 443 µM) | 125 (≈ 443 µM) | > 125 | 
CC1=C(C(=O)O)N2C(=O)[C@@H](NC(=O)[C@H](N)c3ccccc3)[C@H]2SC1 [Cephalexin, cephalexin, reference compound] |  |  |  |  | MIC [5]: 125 µg/mL (≈ 360 µM); MIC ([6]; read-out: M.I.C.): 63 µg/mL (≈ 181 µM); MIC [7, 21]: 4 µg/mL (≈ 11.5 µM); MIC [7, 22]: 4 µg/mL (≈ 11.5 µM); M.I.C. ([7]; at 10^-2 dil'n): 8 meg./ml.; M.I.C. ([7]; at 10^-3 dil'n): 2 meg./ml.; MIC [8]: 2 µg/mL (≈ 5.76 µM); MIC [9]: 32 µg/mL (≈ 92.1 µM); MIC [4, 23]: 1 µg/mL (≈ 2.88 µM)
COc1cccc(OC)c1C(=O)N[C@@H]1C(=O)N2C(C(=O)O)=C(C)OC[C@H]12 (relative stereo) [Example 26, 7β-(2,6-Dimethoxybenzamido)-3-methyl-Δ^3 -O-2-isocephem-4-carboxylic acid] | > 125 | 32 (≈ 88.3 µM) | > 125 | 32 (≈ 88.3 µM) | 
CC1=C(C(=O)O)N2C(=O)[C@@H](NC(=O)CNC(=N)Cc3ccccc3)[C@H]2CO1 (relative stereo) [Example 28, 7β-[N-(Phenylacetimidoyl)aminoacetamido]-3-methyl-Δ^3 -O-2-isocephem-4-carboxylic acid] | > 125 | 0.5 (≈ 1.34 µM) | 4 (≈ 10.7 µM) | 125 (≈ 336 µM) | 
CC1=C(C(=O)O)N2C(=O)[C@@H](NC(=O)C(NC(=O)NC(=O)c3ccccc3)c3ccccc3)[C@H]2CO1 (stereo partly drawn) [Example 25, 7β-(α-Benzoylureidophenylacetamido)-3-methyl-Δ^3 -O-2-isocephem-4-carboxylic acid] | 63 (≈ 132 µM) | 0.3 (≈ 0.627 µM) | 0.6 (≈ 1.25 µM) | 8 (≈ 16.7 µM) | 
N[C@@H](C(=O)N[C@@H]1C(=O)N2C(C(=O)O)=COC[C@H]12)c1ccccc1 [BC-L6, 7β-(D-α-aminophenylacetamido)-Δ^3 -O-2-isocephem-4-carboxylic acid] |  |  |  |  | MIC [10, 23]: > 500 µg/mL; MIC [11, 23]: 63 µg/mL (≈ 199 µM); MIC ([6]; read-out: M.I.C.): > 500 µg/mL; MIC [7, 21]: 500 µg/mL (≈ 1580 µM); MIC ([7]; BX16332A9606, at 10^-3 dil'n): 125 µg/mL (≈ 394 µM); MIC [12]: 125 µg/mL (≈ 394 µM); MIC [13]: > 500 µg/mL; MIC [1]: 125 µg/mL (≈ 394 µM); MIC [14, 23]: > 500 µg/mL; MIC [9, 23]: 250 µg/mL (≈ 788 µM); MIC [15]: 16 µg/mL (≈ 50.4 µM); MIC [2]: 16 µg/mL (≈ 50.4 µM); MIC [16]: 125 µg/mL (≈ 394 µM); MIC ([3]; SMITHA9537, +50% serum, at 10^-4 dilution, overnight 37° C., read-out: M.I.C.): 250 µg/mL (≈ 788 µM); MIC ([3]; SMITHA9537, at 10^-4 dilution, overnight 37° C.): 32 µg/mL (≈ 101 µM); MIC [4]: 32 µg/mL (≈ 101 µM)
CC1=C(C(=O)O)N2C(=O)C(NC(=O)Cn3ncnn3)C2CO1 (stereo not drawn) [Example 37, 7β-[2-(2H)-tetrazolylacetamido]-3-methyl-Δ^3-0-2-isocephem-4-carboxylic acid] |  |  |  |  | M.I.C. E. coli A15119 [1, 24]: > 125 µg/mL; M.I.C. D. pneumoniae A9585 ([2]; Table 9, compound of Ex. No., serum not given): 125 µg/mL; M.I.C. S. aureus A9537 ([3]; Table 9, compound of Ex. No., serum and dilution not given): > 125 µg/mL; M.I.C. Sal. enteritidis A9531 [4, 24]: > 125 µg/mL
O=C(COc1ccccc1)N[C@@H]1C(=O)N2C(C(=O)O)=COC[C@H]12 (relative stereo) [BC-L2, potassium 7 β-phenoxyacetamido-Δ^3 -O-2-isocephem-4-carboxylate] |  |  |  |  | MIC [10]: > 125 µg/mL; MIC [11]: 32 µg/mL; MIC [6]: > 125 µg/mL; MIC ([7]; BX16332A9606, at 10^-2 dil'n): > 125 µg/mL; MIC [7, 22]: 2.5 µg/mL; MIC [12]: > 125 µg/mL; MIC [13]: > 125 µg/mL; MIC [1, 23]: 63 µg/mL; MIC [14]: > 125 µg/mL; MIC [9]: > 125 µg/mL; MIC [15, 25]: 0.6 µg/mL; MIC [2, 25]: 0.6 µg/mL; MIC [16, 23]: 63 µg/mL; MIC ([3]; SMITHA9537, +50% serum, at 10^-4 dilution, overnight 37° C.): 1 µg/mL; MIC ([3]; SMITHA9537, at 10^-4 dilution, overnight 37° C., read-out: M.I.C.): 1.3 µg/mL; MIC [4]: 16 µg/mL
CC1=C(C(=O)O)N2C(=O)[C@@H](NC(=O)NCOc3ccccc3)[C@H]2CO1 (relative stereo) [Example 31] | > 125 | 16 (≈ 46.1 µM) | 32 (≈ 92.1 µM) | > 125 | 
CC1=C(C(=O)O)N2C(=O)[C@@H](NC(=O)[C@H](O)c3ccccc3)[C@H]2CO1 [Example 27, 7β-(D-α-Hydroxyphenylacetamido)-3-methyl-Δ^3 -O-2-isocephem-4-carboxylic acid] | 16 (≈ 48.1 µM) | 1 (≈ 3.01 µM) | 2 (≈ 6.02 µM) | 8 (≈ 24.1 µM) | 
CC1=C(C(=O)O)N2C(=O)[C@@H](NC(=O)Cc3ccccc3CN)[C@H]2CO1 (relative stereo) [Example 24, 7β-(2-Aminomethylphenylacetamido)-3-methyl-Δ^3 -O-2-isocephem-4-carboxylic acid] | 16 (≈ 46.3 µM) | 0.08 (≈ 0.232 µM) | 0.6 (≈ 1.74 µM) | > 2.5 | 

Now from value to compound, other results behind:

MIC [1, 17] [µg/mL] | MIC [2, 18] [µg/mL] | MIC [3, 19] [µg/mL] | MIC [4, 20] [µg/mL] | Compound | also measured
125 (≈ 471 µM) | 0.5 (≈ 1.89 µM) | 4 (≈ 15.1 µM) | 125 (≈ 471 µM) | CC1=C(C(=O)O)N2C(=O)[C@@H](NC(=O)CC#N)[C@H]2CO1 (relative stereo) [Example 36, 7β-[Cyanoacetamido]-3-methyl-Δ^3-0-2-isocephem-4-carboxylicacid] | 
> 125 | 8 (≈ 19.1 µM) | > 8 | > 125 | CC1=C(C(=O)O)N2C(=O)[C@@H](NC(=O)c3c(-c4ccccc4Cl)noc3C)[C@H]2CO1 (relative stereo) [Example 39, 7β-[3-(o-chlorophenyl)-5-methyl-isoxazol-4-ylcarboxamido]-3-methyl-Δ^3-0-2-isocephem-4-carboxylic acid] | 
125 (≈ 395 µM) | 0.5 (≈ 1.58 µM) | 1 (≈ 3.16 µM) | 4 (≈ 12.6 µM) | CC1=C(C(=O)O)N2C(=O)[C@@H](NC(=O)Cc3ccccc3)[C@H]2CO1 (relative stereo) [Example 32, 7β-Phenylacetamido-3-methyl-Δ^3-0-2-isocephem-4-carboxylic acid] | 
32 (≈ 99.3 µM) | 0.25 (≈ 0.776 µM) | 1 (≈ 3.1 µM) | 2 (≈ 6.2 µM) | CC1=C(C(=O)O)N2C(=O)[C@@H](NC(=O)Cc3cccs3)[C@H]2CO1 (relative stereo) [Example 33, 7β-(2-Thienylacetamido)-3-methyl-Δ^3-0-2-isocephem-4-carboxylic acid] | 
125 (≈ 347 µM) | 4 (≈ 11.1 µM) | 16 (≈ 44.4 µM) | 32 (≈ 88.8 µM) | CC1=C(C(=O)O)N2C(=O)[C@@H](NC(=O)C(C(=O)O)c3ccccc3)[C@H]2CO1 (stereo partly drawn) [Example 34, 7β-[α-carboxy-α-phenylacetamido]-3-methyl-Δ^3-0-2-isocephem-4-carboxylic acid] | 
> 125 | 0.25 (≈ 0.752 µM) | 0.5 (≈ 1.5 µM) | > 125 | CC1=C(C(=O)O)N2C(=O)[C@@H](NC(=O)Cc3ccccc3O)[C@H]2CO1 (relative stereo) [Example 35, 7β-(o-Hydroxyphenylacetamido)-3-methyl-Δ^3-0-2-isocephem-4-carboxylic acid] | 
> 125 | 32 (≈ 118 µM) | 125 (≈ 463 µM) | > 125 | CCOC(=O)NC1C(=O)N2C(C(=O)O)=C(C)OCC12 (stereo not drawn) [Example 38, 7β-(Ethoxycarboxamido)-3-methyl-Δ^3-0-2-isocephem-4-carboxylic acid] | 
